Values quoted from earlier work, collected in US11945788B2, “Process for preparing pitolisant hydrochloride and solid-state forms thereof” (Nuray Chemicals Private Limited, priority 2021, dated 2024).

solubility in cyclohexane (solvent: cyclohexane): practically insoluble | solubility in ethanol (solvent: ethanol): soluble | solubility in methylene chloride (solvent: methylene chloride): soluble | solubility in water (solvent: water): soluble
SMILES: Cl.Clc1ccc(CCCOCCCN2CCCCC2)cc1 [Pitolisant hydrochloride, 1-{3-[3-(4-chlorophenyl)propoxy]propyl}piperidine hydrochloride]
